Key:
[1] = system: STING-mediated interferon (IFN) signal reporter gene in THP1-Blue™ ISG cells; assay: STING-mediated interferon (IFN) signal SEAP reporter gene assay in THP1-Blue ISG cells; type: cell-based, human; conditions: for EC50: 16 h incubation, SEAP reporter read at OD620nm; for Emax (OD620nm): highest OD620nm value generated by stimulation of the compound, 16 h; for agonistic effect on the STING-mediated Interferon (IFN) signal pathway: result in words
Excerpt: In this experiment, the activity of the SEAP (secreted embryonic alkaline phosphatase) reporter gene regulated by the IFN regulatory factor (interferon regulatory factor) was detected in the THP1-Blue™ ISG cells (InvivoGen) to evaluate the agonistic effect of the compounds to be tested on the STING-mediated IFN signal pathway at the cellular level.
The THP1-Blue™ ISG cells (InvivoGen) in the logarithmic phase were centrifuged, and resuspended in a cell culture solution to a density of 2×10^6 cells/ml. The cell suspension was inoculated in a 96-well cell culture plate (Corning) at 50 μL/well. The mother liquor of the compound to be tested was gradiently diluted with a cell culture solution to obtain a 2× working concentration diluted solution (control compounds 1 and 2 were diluted at a 3-fold gradient: 200, 66.67, 22.22, 7.41, 2.47, 0.82, 0.27 and 0 μM; compounds 1, 2, 4, 6, 8, and 23 were diluted at a 8-fold gradient: 60, 7.5, 0.94, 0.12, 0.015, 0.0018, 0.00023 and 0 μM; and compounds 3 and 5 were diluted at a 10-fold gradient: 10, 1, 0.1, 0.01, 0.001, 0.0001, 0.00001 and 0 μM). The 2× working concentration diluted solution of the compound was added into a 96-well plate (50 μl of the culture solution containing 2% DMSO was added into the negative control well) at 50 μL/well. The culture plate was then placed in a cell incubator, and incubated for 16 h. After the cell incubation, 10 μL of the cell culture supernatant was transferred to a 96-well plate, and a QUANTI-Blue (InvivoGen) solution was added at 90 μL/well. The cells were incubated at 37° C. for 3 h. The absorbance at 620 nm (OD620nm) was read with a microplate reader.
In the table, EC50 refers to the concentration of a compound when ODM620nm value generated by stimulation of the compound reaches half of Emax; and Emax refers to the highest OD620nm value generated by stimulation of the compound.

[2] = system: STING and its downstream proteins TBK1 and IRF3 in THP-1 cells; assay: Western blotting of phosphorylation of STING signal pathway proteins in human THP-1 cells; type: cell-based; conditions: 3 hours, protein blotting, FIGS. 1-5, result in words
Excerpt: (§1) In this experiment, the changes in the phosphorylation levels of STING and its downstream proteins TBK1 (TANK-binding kinase 1) and IRF3 (interferon regulatory factor 3) were detected by protein blotting to evaluate the agonistic effect of the test compounds on the STING signal pathway at the cellular level.
The THP-1 cells in the logarithmic phase were centrifuged, and resuspended in a cell culture solution to a density of […]. The cell suspension was inoculated into a 12-well cell culture plate (Corning) at 0.5 mL/well. The compound to be tested was diluted with a cell culture solution to 2× working solution concentration (control compounds 1 and 2: 60 μM; compounds 1 and 3: 0.6 μM, 6 μM, and 60 μM; compounds 2, 4, 6 and 8: 6 μM, 20 μM, and 60 μM). 0.5 mL of the diluted solution of the compound was added into a 12-well plate (500 μl of the culture solution containing 2% DMSO was added into the negative control well), and the plate was incubated in a cell incubator for 3 hours. After the incubation, the cells were collected by centrifugation, lysed with 60 μL cell lysis buffer (CST) for 30 minutes, and centrifuged at 12,000 rpm for 15 minutes. The supernatant was collected to determine the protein concentration, and then an appropriate amount of 5× protein loading buffer was added. The mixture was heated at 95° C. for 10 minutes to prepare a protein electrophoresis sample. Finally protein blotting was performed to detect the phosphorylation level of the corresponding protein. The primary antibodies used in the protein blotting were purchased from CST: STING (D2P2F) rabbit mAb, Phospho-STING (Ser366) rabbit mAb, Phospho-IRF3 (Ser396) (D601M) rabbit mAb, IRF3 (D83B9) rabbit mAb, TBK1/NAK (D1B4) rabbit mAb, Phospho-TBK1/NAK (Ser172) (D52C2) XP® rabbit mAb, and GAPDH (D16H11) rabbit mAb; and the secondary antibody horseradish peroxidase-conjugated goat anti-rabbit IgG (H+L) was purchased from Zsgb-bio.

[3] = system: STING and its downstream proteins TBK1 and IRF3 in Raw264.7 cells; assay: Western blotting of phosphorylation of STING signal pathway proteins in mouse Raw264.7 cells; type: cell-based; conditions: 3 hours, protein blotting, FIGS. 6-7, result in words
Excerpt: as §1
The Raw264.7 cells in the logarithmic phase were centrifuged, and resuspended in a cell culture solution to a density of 1.6×10^6 cells/mL. The cell suspension was inoculated into a 6-well cell culture plate (Corning) at 1 mL/well. The compound to be tested was diluted with a cell culture solution to 2× working solution concentration (control compounds 1 and 2: 60 μM; compound 8: 0.6 μM, 6 μM, and 60 μM; compounds 2, 4 and 6: 6 μM, 20 μM, and 60 μM). 1 mL of the diluted solution of the compound was added into a 6-well plate (1 mL of the culture solution containing 2% DMSO was added into the negative control well). The plate was placed in a cell incubator, and incubated for 3 hours. After the incubation, the cells were collected by centrifugation, lysed with 60 μL cell lysis buffer (CST) for 30 minutes, and centrifuged at 12000 rpm for 15 minutes. The supernatant was collected to determine the protein concentration, and then an appropriate amount of 5× protein loading buffer was added. The mixture was heated at 95° C. for 10 minutes to prepare a protein electrophoresis sample. Finally, protein blotting was performed to detect the phosphorylation level of the corresponding protein. The primary antibodies used in the protein blotting were purchased from CST: STING (D2P2F) rabbit mAb, Phospho-STING (Ser365) rabbit mAb, Phospho-IRF3 (Ser396) (D601M) rabbit mAb, IRF3 (D83B9) rabbit mAb, TBK1/NAK (D1B4) rabbit mAb, Phospho-TBK1/NAK (Ser172) (D52C2) XPV rabbit mAb, GAPDH (D16H11) rabbit mAb; and the secondary antibody horseradish peroxidase-conjugated goat anti-rabbit IgG (H+L) was purchased from Zsgb-bio.

Row | SMILES | EC50 ([1]; Homo sapiens) | Emax (OD620nm) [1] | agonistic effect on the STING-mediated Interferon (IFN) signal pathway [1] | agonistic effect on the phosphorylation levels of STING, TBK1 and IRF3 [2] | agonistic effect on the phosphorylation levels of STING, TBK1 and IRF3 [3] | EC50 [1]
1 | COc1cc2cc(C(=O)CCC(=O)O)sc2cc1OCCCOc1cc2sc(C(=O)N(C)CCC(=O)O)cc2cc1OC [Compound 2, 4-(6-(3-((2-((2-carboxyethyl)(methyl)carbamoyl)-5-methoxybenzo[b]thiophen-6-yl)oxy)propoxy)-5-methoxybenzo[b]thiophen-2-yl)-4-oxobutanoic acid] | 457 nM | 1.82 OD620nm | strong agonistic effects | strong agonistic effects | strong agonistic effects | –
2 | CCOC(=O)CCC(=O)c1cc2cc(OC)c(OCCCOc3cc4cc(C(=O)N(C)CCC(=O)OCC)sc4cc3OC)cc2s1 [Compound 3] | – | 1.92 OD620nm | strong agonistic effects | strong agonistic effects | – | 3.58 nM
